Source: BindingDB's records for doi:10.1021/acsmedchemlett.9b00625 (Rwth Aachen University, 2020)
pIC50: −log10 of the molar value.

Legend:
[1] = Inhibition of BRD4 in human HEL cells harboring JAK2 V617F mutant assessed as decrease in metabolic activity measured after 72 hrs by MTT assay
[2] = Inhibition of BRD4 in human MOLM-14 cells harboring FLT3-ITD mutant assessed as decrease in metabolic activity measured after 72 hrs by MTT assay

pIC50 [1]: 6.30
pIC50 [2]: 6.00
Compound: CN1Cc2cc(N=[S@@](C)(=O)c3ccccc3)ccc2NC1=O
